Measurements as given in ChEMBL document CHEMBL4270499, “Recent discoveries of anticancer flavonoids” (Eur J Med Chem, 2017).
≈ marks a conversion by molar mass, not a printed value.

What was measured:
Caco-2 = assay: Cytotoxicity in human Caco2 cells after 72 hrs by MTT assay; type: functional, cell-based; settings: Caco-2, 72 h
K562 [1] = assay: Cytotoxicity in human K562 cells by SRB assay; type: functional, cell-based
CCRF-CEM = assay: Cytotoxicity in human CCRF-CEM cells by resazurin reduction assay; type: functional, cell-based
A-375 = assay: Cytotoxicity in human A375 cells; type: functional, cell-based
K562 [2] = assay: Cytotoxicity in human K562 cells after 24 hrs by trypan blue exclusion assay; type: functional, cell-based; settings: K562, 24 h
[3] = Inhibition of nuclear factor-kappa-B (unknown origin) expressed in human K562 cells pre-incubated for 2 hrs followed by TNFalpha stimulation for 6 hrs by luciferase reporter gene assay; type: cell-based

Question: For `COc1ccc([C@@H]2CC(=O)c3c(O)cc(O)cc3O2)cc1O` [HESPERETIN], which IC50 (Caco-2) is on record?
Answer: The IC50 was 66.7 µM.

Question: Which IC50 (K562 [1]) does the source give for `C[C@@H]1O[C@@H](Oc2c(-c3cc(O)c(O)c(O)c3)oc3cc(O)cc(O)c3c2=O)[C@H](O)[C@H](OC(=O)c2cc(O)c(O)c(O)c2)[C@H]1O` here?
Answer: The IC50 was 30.5 µg/mL.

Question: Which IC50 (Caco-2) does the source give for `O=c1cc(-c2ccccc2)oc2ccccc12` [FLAVONE] here?
Answer: The IC50 was 21 µM.

Question: For `COc1cc(O)cc(OC)c1C(=O)/C=C/c1ccccc1`, which IC50 (CCRF-CEM) is on record?
Answer: The IC50 was no more than 10 µM.

Question: For `O=C1c2ccc(O)cc2O[C@H](c2ccc(O)c(O)c2)[C@H]1O` [FUSTIN], which IC50 (K562 [1]) is on record?
Answer: Its IC50 is greater than 100 µg/mL.

Question: For `O=c1[nH]cc(F)c(=O)[nH]1` [FLUOROURACIL], which IC50 (Caco-2) is on record?
Answer: The IC50 was 60 µM.

Question: Which IC50 (A-375) does the source give for `O=c1c(O)c(-c2ccc(O)c(O)c2)oc2cc(O)cc(O)c12` [QUERCETIN] here?
Answer: Its IC50 is 1.54 ng/mL (≈ 0.0051 µM).

Question: Which IC50 (CCRF-CEM) does the source give for `COc1cc(O)c(OC)c(O)c1C(=O)/C=C/c1ccccc1` here?
Answer: Its IC50 is no more than 10 µM.

Question: Which IC50 (Caco-2) does the source give for `O=c1c(O)c(-c2ccccc2)oc2ccccc12` [FLAVONOL] here?
Answer: Its IC50 is 42.1 µM.

Question: Which IC50 (Caco-2) does the source give for `O=c1cc(-c2ccccc2)oc2cc(O)cc(O)c12` [CHRYSIN] here?
Answer: Its IC50 is 9.5 µM.

Question: With `O=c1c(O)c(-c2ccc(O)cc2)oc2cc(O)cc(O)c12` [KAEMPFEROL] as the compound, how does the IC50 (A-375) read?
Answer: The IC50 was 12.1 ng/mL (≈ 0.0421 µM).

Question: For `C[C@H]1O[C@H](Oc2c(-c3ccc(O)cc3)oc3cc(O)cc(O)c3c2=O)[C@@H](O)[C@@H](O)[C@@H]1O` (single isomer, unassigned) [KAEMPFEROL-3-O-RHAMNOSIDE], which IC50 (K562 [2]) is on record?
Answer: The IC50 was 15.2 µM.

Question: And the IC50 [3]?
Answer: Its IC50 is 4.1 µM.

Question: With `CC1=Cc2c(C(C)C)ccc(C)c2C(=O)C1=O` as the compound, how does the IC50 (K562 [1]) read?
Answer: The IC50 was 1450 nM.

Question: For `COc1cc(O)cc(O)c1C(=O)/C=C/c1ccccc1` [CARDAMOMIN], which IC50 (CCRF-CEM) is on record?
Answer: Its IC50 is no more than 10 µM.
